pIC50: −log10 of the molar value.
How the values were obtained:
ASPC1 = experiment: Antiproliferative activity against human ASPC1 cells harboring […] assessed as inhibition of cell growth incubated for 5 days by crystal violet staining analysis; assay type: functional, cell-based
AGS = experiment: Antiproliferative activity against human AGS cells harboring […] assessed as inhibition of cell growth incubated for 5 days by crystal violet staining analysis; assay type: functional, cell-based
A549 = experiment: Antiproliferative activity against human A549 cells harboring […] assessed as inhibition of cell growth incubated for 5 days by crystal violet staining analysis; assay type: functional, cell-based
NCI-H1299 = experiment: Antiproliferative activity against human NCI-H1299 cells harboring KRAS wild type assessed as inhibition of cell growth incubated for 5 days by crystal violet staining analysis; assay type: functional, cell-based; details: NCI-H1299, 120 h
[1] = Inhibition of recombinant human His6-tagged KRAS4B G12D mutant incubated for 1 hr by HTRF assay
GTPase KRas [2] = molecular target: T1, GTPase KRas (Homo sapiens, UniProt P01116); experiment: Inhibition of recombinant human GTP-bound KRAS wild type (1 to 169 residues) incubated for 1 hr by HTRF assay
[3] = Half life in Sprague-Dawley rat at 1 mg/kg,iv measured upto 24 hrs by LC-MS/MS analysis; assay type: ADME, organism-based; details: in vivo
[4] = AUC in Sprague-Dawley rat at 1 mg/kg,iv measured upto 24 hrs by LC-MS/MS analysis; assay type: ADME, organism-based; set-up: dose 1 mg/kg, time < 24 hrs, route iv; details: in vivo
[5] = Clearance in Sprague-Dawley rat at 1 mg/kg,iv measured upto 24 hrs by LC-MS/MS analysis; assay type: ADME, organism-based; details: in vivo
GTPase KRas [6] = molecular target: T1, GTPase KRas; experiment: Inhibition of KRAS in human ASPC1 cells assessed as downregulation of ERK phosphorylation incubated for 3 hrs by immunoblotting analysis; assay type: cell-based; details: tested as the 2H-labelled form
GTPase KRas [7] = molecular target: T1, GTPase KRas; experiment: Inhibition of KRAS in human ASPC1 cells assessed as downregulation of AKT phosphorylation incubated for 3 hrs by immunoblotting analysis; assay type: cell-based; details: tested as the 2H-labelled form
GTPase KRas [8] = molecular target: T1, GTPase KRas; experiment: Inhibition of KRAS in human AGS cells assessed as downregulation of ERK phosphorylation incubated for 3 hrs by immunoblotting analysis; assay type: cell-based; details: tested as the 2H-labelled form
GTPase KRas [9] = molecular target: T1, GTPase KRas; experiment: Inhibition of KRAS in human AGS cells assessed as downregulation of AKT phosphorylation incubated for 3 hrs by immunoblotting analysis; assay type: cell-based; details: tested as the 2H-labelled form

Row | SMILES | pIC50 (ASPC1; Homo sapiens, ASPC1, 120 h) | pIC50 (AGS; Homo sapiens, AGS, 120 h) | pIC50 (A549; Homo sapiens, A549, 120 h) | pIC50 (NCI-H1299) | further results
1 | C#Cc1c(F)ccc2cc(O)cc(-c3ncc4c(N5C[C@H]6CC[C@@H](C5)N6)nc(OC[C@]56CCCN5[C@@H](COC(=O)N5CCS(=O)(=O)CC5)CC6)nc4c3F)c12 (racemic) | < 7.30 | < 7.30 | < 5.30 | < 5.30 | –
2 | [2H]C([2H])(Oc1nc(N2C[C@H]3CC[C@@H](C2)N3)c2cnc(-c3cccc4ccc(F)c(C#C)c34)c(F)c2n1)C12CCCN1CC(=C(F)F)C2 (some centres not stated) | 7.63 | 7.65 | 5.96 | 5.85 | pIC50 [1]: 8.66; pIC50 (GTPase KRas [2]): 7.69
3 | C#CCN(C)C(=O)OC[C@H]1CC[C@@]2(COc3nc(N4C[C@H]5CC[C@@H](C4)N5)c4cnc(-c5cc(O)cc6ccc(F)c(C#C)c56)c(F)c4n3)CCCN12 | – | – | – | – | pIC50 (ASPC1; aspc1): 6.68; pIC50 (AGS; ags): 7.23; pIC50 (A549; a549): < 5.30
4 | [2H]C([2H])(Oc1nc(N2C[C@H]3CC[C@@H](C2)N3)c2cnc(-c3cc(O)cc4ccc(F)c(C#C)c34)c(F)c2n1)C12CC(=C)CN1CC(=C(F)F)C2 (some centres not stated) | 8.96 | 9.22 | 6.02 | 5.71 | –
5 | [2H]C1([2H])CCC2(C([2H])([2H])Oc3nc(N4C[C@H]5CC[C@@H](C4)N5)c4cnc(-c5cc(O)cc6ccc(F)c(C#C)c56)c(F)c4n3)CC(=C)CN12 (some centres not stated) | 8.70 | 9.10 | 5.77 | < 5.30 | –
6 | [2H]C(Oc1nc(N2C[C@H]3CC[C@@H](C2)N3)c2cnc(-c3cc(O)cc4ccc(F)c(C#C)c34)c(F)c2n1)C12CCCN1CC(=C)C2 (some centres not stated) | 8.68 | 8.89 | 6.14 | < 5.30 | –
7 | [2H]C([2H])(Oc1nc(NCC2(N(C)C)CCC2)c2cnc(-c3cc(N)cc4ccc(F)c(C#C)c34)c(F)c2n1)C12CCCN1CC(=C(F)F)C2 (configuration not stated) | 7.55 | 7.92 | 6.15 | < 5.30 | half-life [3]: 9.42 h; AUC at 24 h [4]: 218 ng·h/mL; clearance [5]: 81.1 mL/min/kg
8 | C#Cc1c(F)ccc2cc(O)cc(-c3ncc4c(N5C[C@H]6CC[C@@H](C5)N6)nc(OC[C@]56CCCN5[C@@H](Cn5cc(COCCOC)nn5)CC6)nc4c3F)c12 (racemic) | < 7.30 | < 7.30 | < 5.30 | < 5.30 | –
9 | [2H]C([2H])(Oc1nc(N2C[C@H]3CC[C@@H](C2)N3)c2cnc(-c3cccc4c(F)cc(F)c(C#C)c34)c(F)c2n1)C12CCCN1CC(=C(F)F)C2 (some centres not stated) | < 7.30 | < 7.30 | < 5.30 | < 5.30 | –
10 | [2H]C([2H])(Oc1nc(N2C[C@H]3CC[C@@H](C2)N3)c2cnc(-c3cc(O)cc4ccc(F)c(C#C)c34)c(F)c2n1)C12CC(=C)CN1C[C@H](F)C2 (some centres not stated) | 8.80 | 9.10 | 5.66 | < 5.30 | –
11 | [2H]C([2H])(Oc1nc(N2C[C@H]3CC[C@@H](C2)N3)c2cnc(-c3cccc4cc(F)c(F)c(C#C)c34)c(F)c2n1)C12CCCN1CC(=C(F)F)C2 (some centres not stated) | < 7.30 | < 7.30 | < 5.30 | < 5.30 | –
12 | C#Cc1c(F)ccc2cc(O)cc(-c3ncc4c(N5C[C@H]6CC[C@@H](C5)N6)nc(OCC56CCCN5CC(=C)C6)nc4c3F)c12 (some centres not stated) | 8.34 | 8.85 | 5.65 | < 5.30 | –
13 | C#CCN(C)C(=O)OC[C@@H]1CC[C@]2(COc3nc(N4C[C@H]5CC[C@@H](C4)N5)c4cnc(-c5cc(O)cc6ccc(F)c(C#C)c56)c(F)c4n3)CCCN12 | 7.62 | 7.81 | 5.99 | < 5.30 | –
14 | [2H]C([2H])(Oc1nc(N2C[C@H]3CC[C@@H](C2)N3C)c2cnc(-c3cc(O)cc4ccc(F)c(C#C)c34)c(F)c2n1)C12CCCN1CC(=C(F)F)C2 (some centres not stated) | < 7.30 | < 7.30 | < 5.30 | < 5.30 | –
15 | [2H]C([2H])(Oc1nc(N[C@H]2CCCC[C@@H]2N(C)C)c2cnc(-c3cc(O)cc4ccc(F)c(C#C)c34)c(F)c2n1)C12CCCN1CC(=C(F)F)C2 (some centres not stated) | < 7.30 | < 7.30 | < 5.30 | < 5.30 | –
16 | C#Cc1c(F)ccc2cc(O)cc(-c3ncc4c(N5C[C@H]6CC[C@@H](C5)N6)nc(NCCCn5cc(COCC67CCCN6CC(=C)C7)nn5)nc4c3F)c12 (some centres not stated) | < 7.30 | < 7.30 | < 5.30 | < 5.30 | –

Row | SMILES | pIC50 (ASPC1; Homo sapiens, ASPC1, 120 h) | pIC50 (AGS; Homo sapiens, AGS, 120 h) | pIC50 (A549; Homo sapiens, A549, 120 h) | pIC50 (NCI-H1299) | further results
17 | [2H]C([2H])(Oc1nc(NCC23CCCN2CCC3)c2cnc(-c3cc(O)cc4ccc(F)c(C#C)c34)c(F)c2n1)C12CCCN1CC(=C(F)F)C2 (configuration not stated) | < 7.30 | < 7.30 | < 5.30 | < 5.30 | –
18 | [2H]C([2H])(Oc1nc(N2C[C@H]3CC[C@@H](C2)N3)c2cnc(-c3cc(O)cc4ccc(F)c(C#C)c34)c(F)c2n1)C12CC(=C)CN1CC1(CC1)C2 (some centres not stated) | 8.41 | 8.96 | 6.03 | 5.52 | –
19 | C#Cc1c(F)ccc2cc(O)cc(-c3ncc4c(N5C[C@H]6CC[C@@H](C5)N6)nc(N5C[C@@H]6C[C@H](C5)c5cccc(=O)n5C6)nc4c3F)c12 | < 7.30 | < 7.30 | < 5.30 | < 5.30 | –
20 | C#Cc1c(F)ccc2cc(O)cc(-c3ncc4c(N5C[C@H]6CC[C@@H](C5)N6)nc(OC[C@]56CCCN5[C@@H](Cn5cc(C(C)(C)O)nn5)CC6)nc4c3F)c12 (racemic) | < 7.30 | < 7.30 | < 5.30 | < 5.30 | –
21 | C#Cc1c(F)ccc2cc(O)cc(-c3ncc4c(N5C[C@H]6CC[C@@H](C5)N6)nc(OC[C@]56CCCN5[C@@H](COC(=O)NCC57C[C@H]8C[C@@H](C5)C[C@@H](C7)C8)CC6)nc4c3F)c12 (mixture of isomers) | 7.37 | 7.90 | < 5.30 | < 5.30 | –
22 | [2H]C([2H])(Oc1nc(N2C[C@H]3CC[C@@H](C2)N3)c2cnc(-c3cc(O)cc4ccc(F)c(C#C)c34)c(F)c2n1)C12CC(=C)CN1CC(=C)C2 | 8.89 | 9.40 | 6.25 | 5.70 | –
23 | [2H]C([2H])(Oc1nc(N2CCC(N(C)C)C2)c2cnc(-c3cc(O)cc4ccc(F)c(C#C)c34)c(F)c2n1)C12CCCN1CC(=C(F)F)C2 (configuration not stated) | < 7.30 | < 7.30 | < 5.30 | < 5.30 | –
24 | C#Cc1c(F)ccc2cc(O)cc(-c3ncc4c(N5C[C@H]6CC[C@@H](C5)N6)nc(OCCn5cc(COCC67CCCN6CC(=C)C7)nn5)nc4c3F)c12 (some centres not stated) | < 7.30 | < 7.30 | < 5.30 | < 5.30 | –
25 | [2H]C([2H])(Oc1nc(N2C[C@H]3CC[C@@H](C2)N3)c2cnc(-c3cc(O)cc4ccc(F)c(C#C)c34)c(F)c2n1)C12CCCN1CC(=C)C2 (some centres not stated) | 8.42 | 8.96 | 6.02 | < 5.30 | –
26 | C#Cc1c(F)ccc2cc(O)cc(-c3ncc4c(N5C[C@H]6CC[C@@H](C5)N6)nc(OC(C)C56CCCN5CC(=C)C6)nc4c3F)c12 (some centres not stated) | < 7.30 | < 7.30 | 5.35 | < 5.30 | –
27 | C#Cc1c(F)ccc2cccc(-c3ncc4c(N5C[C@H]6CC[C@@H](C5)N6)nc(OCC56CCCN5CC(=C(F)F)C6)nc4c3F)c12 (some centres not stated) | – | – | – | – | inhibition (GTPase KRas [6]): Dose-Dependent Effect; inhibition (GTPase KRas [7]): Dose-Dependent Effect; inhibition (GTPase KRas [8]): Dose-Dependent Effect; inhibition (GTPase KRas [9]): Dose-Dependent Effect
28 | C#CCN(C)C(=O)OC[C@H]1CC[C@@]2(COc3nc(N4C[C@H]5CC[C@@H](C4)N5)c4cnc(-c5cc(O)cc6ccc(F)c(C#C)c56)c(F)c4n3)CCCN12 (racemic) | – | – | – | < 5.30 | pIC50 (ASPC1; aspc1): 7.40; pIC50 (AGS; ags): 7.59; pIC50 (A549; a549): 5.75
29 | C#Cc1c(F)ccc2cc(O)cc(-c3ncc4c(N5C[C@H]6CC[C@@H](C5)N6)nc(OC[C@H]5CC6CCN5C[C@@H]6C=C)nc4c3F)c12 | < 7.30 | < 7.30 | < 5.30 | < 5.30 | –
30 | C#Cc1c(F)ccc2cc(O)cc(-c3ncc4c(N5C[C@H]6CC[C@@H](C5)N6)nc(OC[C@]56CCCN5[C@@H](Cn5cc(CCC#N)nn5)CC6)nc4c3F)c12 (racemic) | < 7.30 | < 7.30 | < 5.30 | < 5.30 | –
31 | [2H]C([2H])(Oc1nc(N2C[C@H]3CC[C@@H](C2)N3)c2cnc(-c3c(Cl)c(C)cc4[nH]ncc34)c(F)c2n1)C12CCCN1CC(=C(F)F)C2 (some centres not stated) | < 7.30 | < 7.30 | < 5.30 | < 5.30 | –
32 | [2H]C([2H])(Oc1nc(N2C[C@H]3CC[C@@H](C2)N3)c2cnc(-c3cc(N)cc4cccc(C#C)c34)c(F)c2n1)C12CCCN1CC(=C(F)F)C2 (some centres not stated) | 8.70 | 8.92 | 5.66 | 5.60 | –

Source: ChEMBL document CHEMBL5390265, “Design, Synthesis, and Pharmacological Evaluation of Multisubstituted Pyrido[4,3-d]pyrimidine Analogues Bearing Deuterated Methylene Linkers as Potent KRASG12D Inhibitors” (J Med Chem, 2023)
